Patent US9624247B2, “Pyrazolo-pyrrolidin-4-one derivatives as bet inhibitors and their use in the treatment of disease” (NOVARTIS AG, priority 2013, dated 2017)
pIC50: −log10 of the molar value. Read-outs that look alike come from different tables or passages of the source.

What was measured:
[1] = tested on: MV-4-11 cells; assay: Cell growth inhibition assay (CellTiter-Glo), MV-4-11; format: cell-based, human; conditions: MV-4-11, 4 days; for GI50: Homo sapiens, MV4-11, 96 h, half-maximal growth inhibition; for MV-4-11 TGI: total growth inhibition
Method: (§1) Cell Growth Inhibition Assay
(§2) The human leukemia cell lines MV-4-11, THP-1 and K-562 were employed to characterize the effect of BET inhibitors on cellular proliferation and viability. Cells were obtained from the American Type Culture Collection (ATCC) and cultured at 37° C. in a humidified 5% CO2 incubator in the following media: MV-4-11: DMEM high glucose (Animed #1-26F01-I), 10% FCS (Animed #2-01F26-I), 4 mM L-Glutamine (Animed #5-10K50), 1 mM Sodium Pyruvate (Animed #G03625P), lx Penicillin-Streptomycin (Animed #F12478P); K-562: Iscove's MEM (Animed #1-28F16-I), 10% FCS (Animed #2-01F26-I), 4 mM L-Glutamine (Animed #5-10K50), 1× Penicillin-Streptomycin (Animed #F12478P); THP-1: RPMI-1640 (Animed #1-41F01-I), 10% FCS (Animed #2-01F26-I), 2 mM L-Glutamine (Animed #5-10K50), 10 mM HEPES (Animed #5-31F100), 1 mM Sodium Pyruvate (Animed #G03625P), 1× Penicillin-Streptomycin (Animed #F12478P). The AML lines MV-4-11 and THP-1 are very sensitive to BET inhibitors and show massive cell death upon BET inhibition (Zuber et al., Nature, 478 (2011), 524-8). Compound-mediated suppression of cell proliferation/viability was assessed by quantification of cellular ATP levels using the CellTiter-Glo (CTG) reagent (Promega). Briefly, cells were seeded in 20 μl fresh medium into 384-well plates, followed by addition of 5 μl medium containing compound dilutions at 5-fold their final intended concentration. Dose-response effects were assessed by 3-fold serial dilutions of the test compound, starting at 10 μM. Following incubation of the cells for 4 days at 37° C. and 5% CO2, the effect of inhibitors on cell viability was quantified following addition of 20 μl CTG and luminescence quantification (integration time: 100 ms) as per vendor manual, using a correspondingly equipped Tecan M200 multi-mode platereader (TECAN, Switzerland). For data analysis, the assay background value determined in wells containing medium, but no cells, was subtracted from all data points. To enable differentiation of cytotoxic from cytostatic compounds, the number of viable cells is assessed relative to that observed at the time of compound addition using a separate cell plate (day 0). The effect of a particular test compound concentration on cell proliferation/viability is expressed as percentage of the background- and day 0-corrected luminescence reading obtained for cells treated with vehicle only (DMSO, 0.1% final concentration), which is set as 100%, whereas that luminescence reading for wells containing medium is set as −100%. Compound concentrations leading to half-maximal (IC50) and total growth inhibition (TGI) were determined using standard four parameter curve fitting.

[2] = molecular target: CREBBP bromodomain (His-CREBBP(1081-1197)) (Homo sapiens (Human), UniProt Q92793); assay: AlphaScreen in-vitro binding assay for CREBBP
Method: AlphaScreen In-Vitro Binding Assay for CREBBP
In order to assess bromodomain selectivity, we set up a binding assay using the bromodomain encoded by the CREBBP gene. […] Reactions were incubated at 30° C. for 35 minutes. Subsequently 4.5 μl per well detection mix (50 mM HEPES, pH 7.5, 0.005% Tween20, 0.02% BSA, 150 mM NaCl, 45 μg/ml Ni-chelate acceptor beads, 45 μg/ml streptavidin-donor beads) (Perkin Elmer)) were added. After 60 minutes incubation at room temperature, plates were measured in a Perkin Elmer EnVision multilabel reader. IC50 values were determined from percent inhibition values at different compound concentrations by non-linear regression analysis.
(§3) Preparation of Compound Dilutions
(§4) Test compounds were dissolved in DMSO (10 mM) and transferred into 1.4 mL flat bottom or V-shaped Matrix tubes carrying a unique 2D matrix. The stock solutions were stored at […] if not used immediately. For the test procedure the vials were defrosted and identified by a scanner whereby a working sheet was generated that guided the subsequent working steps. Compound dilutions were made in 96 well plates. This format enabled the assay of maximally 40 individual test compounds at 8 concentrations (single points) including 4 reference compounds, if desired (known BET inhibitors from the prior art, for this and other assays of the type disclosed herein). The dilution protocol included the production of “pre-dilution plates”, “master plates” and “assay plates”.
(§5) Pre-dilution plates: 96 polypropylene well plates were used as pre-dilution plates. A total of 4 pre-dilution plates were prepared including 10 test compounds each on the plate positions A1-A10, one standard compound at A11 and one DMSO control at A12. All dilution steps were done on a HamiltonSTAR robot.
(§6) These plates were used directly for the assay which was performed in a total volume of 13.55 μL.

[3] = tested on: THP-1 cells; assay: Cell growth inhibition assay (CellTiter-Glo), THP-1; format: cell-based, human; conditions: THP-1, 4 days; for GI50: Homo sapiens, 96 h, half-maximal growth inhibition; for THP-1 TGI: total growth inhibition
Method: as §1, §2

[4] = tested on: K-562 cells; assay: Cell growth inhibition assay (CellTiter-Glo), K-562; format: cell-based, human; conditions: K-562, 4 days; for GI50: Homo sapiens, K562, 96 h, half-maximal growth inhibition; for K-562 TGI: total growth inhibition
Method: as §1, §2

[5] = molecular target: BRD2 (His-Brd2(60-472)) (Homo sapiens (Human), UniProt P25440); assay: TR-FRET in-vitro binding assay for BRD2; conditions: acetyl-histone H4 peptide
Method: (§7) TR-FRET In-Vitro Binding Assays for BRD2, BRD3, and BRD4:
(§8) All assays were performed in 384 well microtiter plates. Each assay plate contained 8-point serial dilutions for 40 test compounds, plus 16 high- and 16 low controls. Liquid handling and incubation steps were done on an Innovadyne Nanodrop Express equipped with a robotic arm (Thermo CatX, Perkin Elmer/Caliper Twister II) and an incubator (Liconic STX40, Thermo Cytomat 2C450). The assay plates were prepared by addition of 50 nl per well of compound solution in 90% DMSO HummingBird nanodispenser (Zinsser Analytic). The assay was started by stepwise addition of 4.5 μl per well of bromo domain protein (50 mM HEPES, pH 7.5, 0.005% Tween20, 0.1% BSA, 50 mM NaCl, 45 nM His-Brd2(60-472) or 45 nM His-Brd3(20-477) or 45 nM His-Brd4(44-477) all proteins produced in-house) and 4.5 μl per well of peptide solution (50 mM HEPES, pH 7.5, 0.005% Tween20, 0.1% BSA, 50 mM NaCl, 60 nM acetyl-histone H4 (AcK 5, 8, 12, 16) (Biosyntan GmbH)). Reactions were incubated at 30° C. for 35 minutes. […] After 35 minutes incubation at 30° C., plates were measured in a Perkin Elmer EnVision multilabel reader. Concentrations causing 50% inhibition (IC50 values) were determined from percent inhibition values at different compound concentrations by non-linear regression analysis.
as §3, §4, §5
(§9) Master plates: 30 μL of individual compound dilutions including standard compound and controls of the 4 “pre-dilution plates” were transferred into a 384 “master plate” including the following concentrations 10000, 3003, 1000, 300, 100, 30, 10 and 3 μM, respectively in 90% of DMSO.
(§10) Assay plates: Identical “assay plates” were then prepared by pipetting 50 nL each of compound dilutions of the “master plates” into 384-well “assay plates” by means of a HummingBird 384-channel dispenser. These plates were used directly for the assay which was performed in a total volume of 13.55 μL. This led to a final compound concentration of 37, 11, 3.7, 1.1, 0.37, 0.11, 0.037 and 0.011 μM and a final DMSO concentration of 0.37% in the assay.

[6] = molecular target: BRD3 (His-Brd3(20-477)) (Homo sapiens (Human), UniProt Q15059); assay: TR-FRET in-vitro binding assay for BRD3; conditions: acetyl-histone H4 peptide
Method: as §7
All assays were performed in 384 well microtiter plates. Each assay plate contained 8-point serial dilutions for 40 test compounds, plus 16 high- and 16 low controls. Liquid handling and incubation steps were done on an Innovadyne Nanodrop Express equipped with a robotic arm (Thermo CatX, Perkin Elmer/Caliper Twister II) and an incubator (Liconic STX40, Thermo Cytomat 2C450). The assay plates were prepared by addition of 50 nl per well of compound solution in 90% DMSO HummingBird nanodispenser (Zinsser Analytic). […] Reactions were incubated at 30° C. for 35 minutes. […] After 35 minutes incubation at 30° C., plates were measured in a Perkin Elmer EnVision multilabel reader.
as §3, §4, §5, §6

[7] = molecular target: BRD4 (His-Brd4(44-477)) (Homo sapiens (Human), UniProt O60885); assay: TR-FRET in-vitro binding assay for BRD4; conditions: acetyl-histone H4 peptide
Method: as §7, §8, §3, §4, §5, §9, §10

[8] = AlphaScreen, acetyl-histone H4 peptide, read-out: CREBBP IC50

Chain of BRD2 (His-Brd2(60-472)) (P25440 60-472): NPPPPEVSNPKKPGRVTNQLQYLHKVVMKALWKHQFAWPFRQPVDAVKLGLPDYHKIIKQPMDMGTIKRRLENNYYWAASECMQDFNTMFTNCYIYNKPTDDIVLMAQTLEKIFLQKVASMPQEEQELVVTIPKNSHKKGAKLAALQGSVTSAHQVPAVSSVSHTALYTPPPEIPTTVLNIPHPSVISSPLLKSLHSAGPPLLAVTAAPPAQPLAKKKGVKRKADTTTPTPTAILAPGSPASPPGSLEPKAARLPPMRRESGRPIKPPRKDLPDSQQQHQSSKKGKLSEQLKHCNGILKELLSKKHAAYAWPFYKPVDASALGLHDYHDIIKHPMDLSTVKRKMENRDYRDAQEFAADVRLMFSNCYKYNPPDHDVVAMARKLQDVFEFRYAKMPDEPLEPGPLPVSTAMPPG
Chain of CREBBP bromodomain (His-CREBBP(1081-1197)) (Q92793 1081-1197): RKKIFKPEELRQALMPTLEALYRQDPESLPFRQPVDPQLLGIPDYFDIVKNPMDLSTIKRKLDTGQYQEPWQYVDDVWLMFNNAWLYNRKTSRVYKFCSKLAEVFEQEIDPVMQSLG
Chain of BRD3 (His-Brd3(20-477)) (Q15059 20-477): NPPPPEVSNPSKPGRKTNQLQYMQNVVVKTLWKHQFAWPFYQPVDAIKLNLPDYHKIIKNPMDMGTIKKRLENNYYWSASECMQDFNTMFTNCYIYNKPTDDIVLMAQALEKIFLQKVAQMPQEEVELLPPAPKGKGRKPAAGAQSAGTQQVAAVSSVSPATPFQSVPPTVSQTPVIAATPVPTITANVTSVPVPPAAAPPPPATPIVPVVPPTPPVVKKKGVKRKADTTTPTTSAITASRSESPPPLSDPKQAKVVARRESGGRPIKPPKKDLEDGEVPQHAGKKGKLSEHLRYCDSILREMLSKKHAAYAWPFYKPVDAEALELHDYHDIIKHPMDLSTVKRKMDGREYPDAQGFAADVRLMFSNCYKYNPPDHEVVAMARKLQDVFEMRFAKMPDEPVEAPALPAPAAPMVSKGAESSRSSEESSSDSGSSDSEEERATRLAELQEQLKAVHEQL

Cc1cc(N2C(=O)c3c(C4CC4)nn(C)c3C2c2ccc(Cl)cc2)cc2c1nnn2C (racemic) [Example 8, 6-(4-chlorophenyl)-3-cyclopropyl-5-(1,4-dimethyl-1H-benzo[d][1,2,3]triazol-6-yl)-1-methyl-5,6-dihydropyrrolo[3,4-c]pyrazol-4(1H)-one]
GI50 [1]: 4.71 nM
MV-4-11 TGI [1]: 9.53 nM
pIC50 [2, 8]: 5.32
GI50 [3]: 7.29 nM
THP-1 TGI [3]: 17.6 nM
GI50 [4]: 24.8 nM
K-562 TGI [4]: >10000 nM

COc1ncccc1-c1nn(C)c2c1C(=O)N(c1cc(C)c3nnc(C)n3c1)C2c1ccc(Cl)cc1 (racemic) [Example 12, 6-(4-chlorophenyl)-5-(3,8-dimethyl-[1,2,4]triazolo[4,3-a]pyridin-6-yl)-3-(2-methoxypyridin-3-yl)-1-methyl-5,6-dihydropyrrolo[3,4-c]pyrazol-4(1H)-one]
GI50 [1]: 17.5 nM
MV-4-11 TGI [1]: 37.8 nM
pIC50 [5]: 7.38
pIC50 [2, 8]: 4.91
pIC50 [6]: 7.51
GI50 [3]: 40.5 nM
THP-1 TGI [3]: 97.35 nM
pIC50 [7]: 7.49
GI50 [4]: 106 nM
K-562 TGI [4]: >10000 nM

Cc1cc(N2C(=O)c3c(C4CC4)nn(C)c3[C@H]2c2ccc(Cl)cc2)cc2c1nnn2C [Example 9, (R)-6-(4-chlorophenyl)-3-cyclopropyl-5-(1,4-dimethyl-1H-benzo[d][1,2,3]triazol-6-yl)-1-methyl-5,6-dihydropyrrolo[3,4-c]pyrazol-4(1H)-one]
GI50 [1]: 2.57 nM
MV-4-11 TGI [1]: 5.745 nM
pIC50 [2, 8]: 5.49
GI50 [3]: 4.41 nM
THP-1 TGI [3]: 10.76 nM
GI50 [4]: 14.3 nM
K-562 TGI [4]: >10000 nM

COc1ncccc1-c1n[nH]c2c1C(=O)N(c1cc(C)c3nnc(C)n3c1)C2c1ccc(Cl)cc1 (stereo not drawn) [Example 10, 6-(4-chlorophenyl)-5-(3,8-dimethyl-[1,2,4]triazolo[4,3-a]pyridin-6-yl)-3-(2-methoxypyridin-3-yl)-5,6-dihydropyrrolo[3,4-c]pyrazol-4(1H)-one]
GI50 [1]: 34.5 nM
MV-4-11 TGI [1]: 64.3 nM
pIC50 [5]: 7.32
pIC50 [2]: < 4.43
pIC50 [6]: 7.35
GI50 [3]: 60.4 nM
THP-1 TGI [3]: 136.8 nM
pIC50 [7]: 7.52
GI50 [4]: 135 nM
K-562 TGI [4]: >10000 nM

COc1ncccc1-c1n[nH]c2c1C(=O)N(c1cc(C)c3nnc(C)n3c1)[C@@H]2c1ccc(Cl)cc1 [Example 11, (R)-6-(4-chlorophenyl)-5-(3,8-dimethyl-[1,2,4]triazolo[4,3-a]pyridin-6-yl)-3-(2-methoxypyridin-3-yl)-5,6-dihydropyrrolo[3,4-c]pyrazol-4(1H)-one]
GI50 [1]: 9.55 nM
MV-4-11 TGI [1]: 17.4 nM
pIC50 [5]: 7.34
pIC50 [2, 8]: < 4.43
pIC50 [6]: 7.43
GI50 [3]: 28.2 nM
THP-1 TGI [3]: 42.8 nM
pIC50 [7]: 7.38
GI50 [4]: 98.4 nM
K-562 TGI [4]: >10000 nM

COc1ncccc1-c1nn(C)c2c1C(=O)N(c1cc(C)c3nnc(C)n3c1)[C@@H]2c1ccc(Cl)cc1 [Example 13, (R)-6-(4-chlorophenyl)-5-(3,8-dimethyl-[1,2,4]triazolo[4,3-a]pyridin-6-yl)-3-(2-methoxypyridin-3-yl)-1-methyl-5,6-dihydropyrrolo[3,4-c]pyrazol-4(1H)-one]
GI50 [1]: 14.2 nM
MV-4-11 TGI [1]: 29.8 nM
pIC50 [5]: 7.47
pIC50 [2, 8]: 5.27
pIC50 [6]: 7.66
GI50 [3]: 28.4 nM
THP-1 TGI [3]: 64.65 nM
pIC50 [7]: 7.62
GI50 [4]: 96.5 nM
K-562 TGI [4]: >10000 nM
